What is called Ki is a dissociation constant, usually derived from enzyme kinetics or from competition with a known ligand. As a reminder, the half-life is the time in which the quantity being followed falls by half.

One data set concerns the target T1, hSSTR-1 (Homo sapiens, UniProt P30872).
T1 construct: expressed in transfected cells; host or cells: CHO-K1
As to the kind of experiment: Somatostatin receptor radioligand binding, hSSTR-1 (CHO-K1 membranes). To be noted: read-out: Ki hSSTR1 ± (SEM). As for the experimental part: Membranes for in vitro receptor binding assays were obtained by homogenizing (Polytron setting 6, 15 sec) CHO-K1 cells expressing human somatostatin receptor subtypes hSSTR-1, hSSTR-2, hSSTR-3, hSSTR-4 or hSSTR-5 in ice-cold 50 mM Tris-HCl. The homogenized cells were centrifuged twice at 39,000 g for 10 minutes with an intermediate resuspension in fresh buffer. The final pellets were resuspended in 10 mM Tris-HCl to prepare the cell membrane homogenate for use in the binding assay.
The final assay volume was 0.3 ml.
The cell membrane homogenate was incubated with the radioligands for 90 minutes at 25° C. The incubations were terminated by rapid filtration through GF/C filters pre-soaked in 0.3% polyethylenimine using a Brandel® filtration manifold (Gaithersberg, Md., U.S.A.). Each tube and filter was washed three times with 5-ml aliquots of ice-cold buffer. Specific binding was defined as the total radioligand bound minus that bound in the presence of 1000 nM SRIF-14 (for hSSTR-1, hSSTR-3, hSSTR-4 or hSSTR-5), or 1000 nM DPhe-c(Cys-Tyr-D-Trp-Lys-Abu-Cys)-Thr-NH2 for hSSTR-2.

Data set [1] can be described thus: Half-life determination in human plasma (LC-MS). The following applies: 37° C. It is filed as in vitro ADME. As for the experimental part:
(§1) Samples containing approximately 50 μg/ml up to and including approximately 500 μg/ml of test compound according to Formula IA or IB or II was added to 450 μl human or mouse plasma, vortexed briefly and incubated at 37° C. At various time intervals, e.g., 0, 0.5, 1, 2, 4, 6, 8, 24, 36 and 48 hours, 50 μl of the compound-plasma mixture was added to 150 μl acetonitrile in a microcentrifuge tube. The mixture was vortexed, centrifuged for 5 minutes at 10K RPM, and 135 μl of supernatant was transferred to an injection vial. The recovered supernatant was analyzed by using a liquid chromatography-mass spectrophotometer system (LC-MS) consisting of a Finnigan Deca XP® mass spectrometer with an ESI probe at the positive ion mode. HPLC separation was carried out on a Luna 3μ C8 (2)® 3×50 mm column with a gradient decreasing from 100% A to 80% B for 10 minutes at a flow rate of 0.25 ml/min. Buffer A was 0.1% acetic acid in water and buffer B was 0.1% acetic acid acetonitrile.

The next data set concerns the target T2, hSSTR-4 (Homo sapiens, UniProt P31391).
T2 construct: expressed in transfected cells; host or cells: CHO-K1
Briefly: Somatostatin receptor radioligand binding, hSSTR-4 (CHO-K1 membranes). To be noted: read-out: Ki hSSTR4 ± (SEM).

Another data set deals with T3, hSSTR-3 (Homo sapiens, UniProt P32745).
T3 construct: expressed in transfected cells; host or cells: CHO-K1
T3 sequence (P32745 whole entry): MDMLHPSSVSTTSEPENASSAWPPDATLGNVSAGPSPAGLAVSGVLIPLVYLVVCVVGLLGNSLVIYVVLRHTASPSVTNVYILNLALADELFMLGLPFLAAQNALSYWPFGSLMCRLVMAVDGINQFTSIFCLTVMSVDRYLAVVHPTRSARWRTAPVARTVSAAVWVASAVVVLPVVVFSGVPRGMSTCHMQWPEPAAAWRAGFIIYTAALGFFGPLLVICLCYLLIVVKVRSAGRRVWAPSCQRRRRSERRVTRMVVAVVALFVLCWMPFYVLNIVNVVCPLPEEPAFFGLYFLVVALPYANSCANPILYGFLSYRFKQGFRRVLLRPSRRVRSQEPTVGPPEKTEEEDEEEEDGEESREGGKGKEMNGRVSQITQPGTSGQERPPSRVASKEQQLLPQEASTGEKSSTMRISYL
As to the kind of experiment: Somatostatin receptor radioligand binding, hSSTR-3 (CHO-K1 membranes). To be noted: read-out: Ki hSSTR3 ± (SEM).

Data set [2] in a line: Half-life determination in mouse plasma (LC-MS). It is filed as in vitro ADME. To be noted: 37° C. As for the experimental part:
as §1

Another data set addresses T4, bombesin/GRP receptor (Rattus norvegicus, UniProt P52500).
T4 construct: AR42J rat pancreas cells expressing the native bombesin/GRP receptor; endogenous in cells; host or cells: AR42J rat pancreas cells
Briefly: Bombesin/GRP radioligand binding (AR42J rat pancreas cell membranes). The following applies: read-out: Ki bombesin receptor ± (SEM). As for the experimental part:
Membranes were prepared for radioligand binding studies by homogenization of AR42J rat pancreas cells expressing the native bombesin/GRP receptor in 20 ml of ice-cold 50 mM Tris-HCl with a Brinkman Polytron® (Westbury, N.Y., U.S.A.) at settings of 6, 15 seconds. The homogenates were washed twice by centrifugation (39,000 g/10 minutes) and the final pellets were resuspended in 50 mM Tris-HCl containing 2.5 mM MgCl2 and 0.1% BSA. […] The filters were then washed three times with 5-ml aliquots of ice-cold 50 mM Tris-HCl. The bound radioactivity trapped on the filters was counted by gamma spectrometry (Wallac LKB®, Gaithersburg, Md., U.S.A.).

The mark [3] stands for this setting: [125I-Tyr11]SRIF-14, value of 1000 indicates at least 1000.

Like-named read-outs stand apart in the source and are kept apart here. Numbered stars: 1 amine (or outer) side, 2 acyl side, 3 side chain; on linkers, the order of the positions; unused ones are H or OH. Square brackets hold non-standard residues; d marks the D form. Peptide text beside a SMILES is read from it. * marks the point of attachment. Pipz(1-CH2CO,4-CH2CH2NH) = O=C(CN1CCN(CCN[*:1])CC1)[*:2]; X1 = CC[C@@]1(O*)C(=O)OCc2c1cc1n(c2=O)Cc2cc3ccccc3nc2-1; Suc = O=C(CCC(=O)[*:2])[*:1]; Nle = CCCC[C@H](N)C(=O)O; AEEA = NCCOCCOCC(=O)O; βAla = NCCC(=O)O

T1 sequence (P30872 whole entry): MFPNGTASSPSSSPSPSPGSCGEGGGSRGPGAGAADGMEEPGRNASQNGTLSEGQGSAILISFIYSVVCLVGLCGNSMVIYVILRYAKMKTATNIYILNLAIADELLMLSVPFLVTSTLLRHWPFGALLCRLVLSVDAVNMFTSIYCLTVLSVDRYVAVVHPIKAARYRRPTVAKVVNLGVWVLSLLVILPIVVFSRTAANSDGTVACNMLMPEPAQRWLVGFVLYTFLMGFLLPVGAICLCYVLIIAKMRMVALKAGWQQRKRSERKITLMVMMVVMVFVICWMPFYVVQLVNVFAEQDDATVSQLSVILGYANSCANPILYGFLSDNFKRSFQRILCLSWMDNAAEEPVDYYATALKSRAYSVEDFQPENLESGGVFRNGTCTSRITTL
T2 sequence (P31391 whole entry): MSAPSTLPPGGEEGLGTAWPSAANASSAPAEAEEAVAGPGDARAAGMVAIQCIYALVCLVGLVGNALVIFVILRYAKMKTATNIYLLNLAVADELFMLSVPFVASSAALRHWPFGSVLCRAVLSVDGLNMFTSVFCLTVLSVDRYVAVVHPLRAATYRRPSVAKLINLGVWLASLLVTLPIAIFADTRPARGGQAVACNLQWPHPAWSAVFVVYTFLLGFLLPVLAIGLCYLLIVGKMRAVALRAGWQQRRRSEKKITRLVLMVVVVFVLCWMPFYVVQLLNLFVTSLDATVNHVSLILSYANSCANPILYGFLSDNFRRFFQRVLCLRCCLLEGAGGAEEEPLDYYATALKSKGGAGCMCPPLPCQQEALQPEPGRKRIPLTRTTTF
T4 sequence (P52500 whole entry): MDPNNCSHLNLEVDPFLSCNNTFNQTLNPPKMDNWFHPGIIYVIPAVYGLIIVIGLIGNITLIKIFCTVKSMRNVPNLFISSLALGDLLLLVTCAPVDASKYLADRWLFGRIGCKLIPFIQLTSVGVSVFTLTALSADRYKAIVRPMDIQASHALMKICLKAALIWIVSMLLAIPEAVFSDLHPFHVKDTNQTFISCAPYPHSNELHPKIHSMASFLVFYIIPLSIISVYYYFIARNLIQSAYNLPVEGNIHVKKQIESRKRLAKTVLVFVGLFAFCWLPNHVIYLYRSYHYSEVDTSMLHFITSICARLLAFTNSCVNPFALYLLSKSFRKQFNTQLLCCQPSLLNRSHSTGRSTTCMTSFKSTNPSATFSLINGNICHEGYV
Method for hSSTR-3: For the hSSTR-1, hSSTR-3, and hSSTR-4 assays, aliquots of the membrane preparations were incubated for 90 minutes at 25° C. with 0.05 nM [^125I-Tyr11]SRIF-14 in 50 mM HEPES (pH 7.4) buffer containing 0.2% BSA and 5 mM MgCl2. The final assay volume was 0.3 ml. For the hSSTR-2 and hSSTR-5 assays, [^125I]-[4-(2-hydroxyethyl)]-1-piperazinylacetyl-D-Phe-c(Cys-Tyr-D-Trp-Lys-Abu-Cys)-Thr-NH2 (0.05 nM) and [^125I]-D-Phe-c(Cys-Tyr-D-Trp-Lys-Val-Cys)-Thr-NH2 were employed as the radioligands, respectively.

`CC[C@@H]1NC(=O)[C@H](CCCCN)NC(=O)[C@@H](Cc2c[nH]c3ccccc23)NC(=O)[C@H](Cc2ccc(O)cc2)NC(=O)[C@@H](NC(=O)[C@@H](Cc2ccccc2)NC(=O)CN2CCN(CCNC(=O)COCCOCCNC(=O)COCCOCCNC(=O)COCCOCCNC(=O)COCCOCCNC(=O)CCC(=O)N[C@@H](CC3CCCCC3)C(=O)O[C@]3(CC)C(=O)OCc4c3cc3n(c4=O)Cc4cc5ccccc5nc4-3)CC2)CSSC[C@@H](C(=O)N[C@H](C(N)=O)[C@@H](C)O)NC1=O` [Example 1, Camptothecin-rvCha-Suc-(Doc)4-Aepa-DPhe-c(Cys-Tyr-DTrp-Lys-Abu-Cys)-Thr-NH2]: the Ki was at least 1000 nM at hSSTR-1, at least 1000 nM at hSSTR-4 and 155 nM at hSSTR-3. Besides, the results for the half-life in data set [1] and in data set [2] were 4.7 h and 2 h, respectively.

As for `CC[C@@H]1NC(=O)[C@H](CCCCN)NC(=O)[C@@H](Cc2c[nH]c3ccccc23)NC(=O)[C@H](Cc2ccc(O)cc2)NC(=O)[C@@H](NC(=O)[C@@H](Cc2ccccc2)NC(=O)CN2CCN(CCNC(=O)COCCOCCNC(=O)COCCOCCNC(=O)COCCOCCNC(=O)COCCOCCNC(=O)CCC(=O)N[C@@H](CCCNC(=N)N)C(=O)O[C@]3(CC)C(=O)OCc4c3cc3n(c4=O)Cc4cc5ccccc5nc4-3)CC2)CSSC[C@@H](C(=O)N[C@H](C(N)=O)[C@@H](C)O)NC1=O` [Example 7, Camptothecin-rvArg-Suc-(Doc)4-Aepa-D-Phe-c(Cys-Tyr-D-Trp-Lys-Abu-Cys)-Thr-NH2], the figures for the inhibition constant Ki at hSSTR-1, at hSSTR-4 and on hSSTR-3 were at least 1000 nM, at least 1000 nM and 479 nM, respectively. Further, the half-life in data set [1] was 1.5 h; in data set [2] it was 1.2 h.

Consider `CC[C@@H]1NC(=O)[C@H](CCCCN)NC(=O)[C@@H](Cc2c[nH]c3ccccc23)NC(=O)[C@H](Cc2ccc(O)cc2)NC(=O)[C@@H](NC(=O)[C@@H](Cc2ccccc2)NC(=O)CN2CCN(CCNC(=O)COCCOCCNC(=O)COCCOCCNC(=O)COCCOCCNC(=O)COCCOCCNC(=O)CCC(=O)NCCCCC(=O)O[C@]3(CC)C(=O)OCc4c3cc3n(c4=O)Cc4cc5ccccc5nc4-3)CC2)CSSC[C@@H](C(=O)N[C@H](C(N)=O)[C@@H](C)O)NC1=O` [Example 11, Camptothecin-rvApn-Suc-(Doc)4-Aepa-D-Phe-c(Cys-Tyr-D-Trp-Lys-Abu-Cys)-Thr-NH2], for which the inhibition constant Ki at hSSTR-1 and on hSSTR-4 was at least 1000 nM in each case. Besides, the half-life in data set [1] was 5 h; in data set [2] it was 3.7 h.

Consider `CC[C@@H]1NC(=O)[C@H](CCCCN)NC(=O)[C@@H](Cc2c[nH]c3ccccc23)NC(=O)[C@H](Cc2ccc(O)cc2)NC(=O)[C@@H](NC(=O)[C@@H](Cc2ccccc2)NC(=O)CN2CCN(CCNC(=O)COCCOCCNC(=O)COCCOCCNC(=O)COCCOCCNC(=O)COCCOCCNC(=O)CCC(=O)N[C@@H](CC)C(=O)O[C@]3(CC)C(=O)OCc4c3cc3n(c4=O)Cc4cc5ccccc5nc4-3)CC2)CSSC[C@@H](C(=O)N[C@H](C(N)=O)[C@@H](C)O)NC1=O` [Example 12, Camptothecin-rvAbu-Suc-(Doc)4-Aepa-D-Phe-c(Cys-Tyr-D-Trp-Lys-Abu-Cys)-Thr-NH2], for which the Ki at hSSTR-1 and at hSSTR-4 was at least 1000 nM in each case. The half-life in data set [1] was 0.7 h; in data set [2] it was 6 h.

As to `CC[C@@H]1NC(=O)[C@H](CCCCN)NC(=O)[C@@H](Cc2c[nH]c3ccccc23)NC(=O)[C@H](Cc2ccc(O)cc2)NC(=O)[C@@H](NC(=O)[C@@H](Cc2ccccc2)NC(=O)CN2CCN(CCNC(=O)COCCOCCNC(=O)COCCOCCNC(=O)COCCOCCNC(=O)COCCOCCNC(=O)CCC(=O)N[C@@H](C(=O)O[C@]3(CC)C(=O)OCc4c3cc3n(c4=O)Cc4cc5ccccc5nc4-3)C(C)C)CC2)CSSC[C@@H](C(=O)N[C@H](C(N)=O)[C@@H](C)O)NC1=O` [Example 13, Camptothecin-rvD-Val-Suc-(Doc)4-Aepa-D-Phe-c(Cys-Tyr-D-Trp-Lys-Abu-Cys)-Thr-NH2], the Ki at hSSTR-1 and at hSSTR-4 was at least 1000 nM in each case. Further, the half-life in data set [1] is 0.3 h; in data set [2], 7.7 h.

As for `CC[C@@H]1NC(=O)[C@H](CCCCN)NC(=O)[C@@H](Cc2c[nH]c3ccccc23)NC(=O)[C@H](Cc2ccc(O)cc2)NC(=O)[C@@H](NC(=O)[C@@H](Cc2ccccc2)NC(=O)CN2CCN(CCNC(=O)COCCOCCNC(=O)COCCOCCNC(=O)COCCOCCNC(=O)COCCOCCNC(=O)CCC(=O)N[C@@H](C)C(=O)O[C@]3(CC)C(=O)OCc4c3cc3n(c4=O)Cc4cc5ccccc5nc4-3)CC2)CSSC[C@@H](C(=O)N[C@H](C(N)=O)[C@@H](C)O)NC1=O` [Example 14, Camptothecin-rvAla-Suc-(Doc)4-Aepa-D-Phe-c(Cys-Tyr-D-Trp-Lys-Abu-Cys)-Thr-NH2], the Ki on hSSTR-1, at hSSTR-4 and on hSSTR-3 was at least 1000 nM throughout. Moreover, the half-life was 1.3 h in data set [1] and 4.6 h in data set [2].

Regarding `CC[C@@H]1NC(=O)[C@H](CCCCN)NC(=O)[C@@H](Cc2c[nH]c3ccccc23)NC(=O)[C@H](Cc2ccc(O)cc2)NC(=O)[C@@H](NC(=O)[C@@H](Cc2ccccc2)NC(=O)CN2CCN(CCNC(=O)COCCOCCNC(=O)COCCOCCNC(=O)COCCOCCNC(=O)COCCOCCNC(=O)CCC(=O)N[C@H](C(=O)O[C@]3(CC)C(=O)OCc4c3cc3n(c4=O)Cc4cc5ccccc5nc4-3)C(C)C)CC2)CSSC[C@@H](C(=O)N[C@H](C(N)=O)[C@@H](C)O)NC1=O` [Example 15, Camptothecin-rvVal-Suc-(Doc)4-Aepa-D-Phe-c(Cys-Tyr-D-Trp-Lys-Abu-Cys)-Thr-NH2], the Ki at hSSTR-1 and on hSSTR-4 was at least 1000 nM each time. Further, the half-life in data set [1] is 0.4 h; in data set [2], 5 h.

As to `CC[C@@H]1NC(=O)[C@H](CCCCN)NC(=O)[C@@H](Cc2c[nH]c3ccccc23)NC(=O)[C@H](Cc2ccc(O)cc2)NC(=O)[C@@H](NC(=O)[C@@H](Cc2ccccc2)NC(=O)CN2CCN(CCNC(=O)COCCOCCNC(=O)COCCOCCNC(=O)COCCOCCNC(=O)COCCOCCNC(=O)CCCC(=O)O[C@]3(CC)C(=O)OCc4c3cc3n(c4=O)Cc4cc5ccccc5nc4-3)CC2)CSSC[C@@H](C(=O)N[C@H](C(N)=O)[C@@H](C)O)NC1=O` [Example 16, Camptothecin-Glut-(Doc)4-Aepa-D-Phe-c(Cys-Tyr-D-Trp-Lys-Abu-Cys)-Thr-NH2], the Ki on hSSTR-1 and at hSSTR-4 was at least 1000 nM throughout. The half-life in data set [1] is 3.6 h; in data set [2], 4.2 h.

With `CCCC[C@H](NC(=O)[C@H](CC(C)C)NC(=O)[C@H](Cc1c[nH]cn1)NC(=O)CCNC(=O)[C@@H](NC(=O)[C@H](C)NC(=O)[C@H](Cc1c[nH]c2ccccc12)NC(=O)[C@H](CCC(N)=O)NC(=O)[C@H](CCCC)NC(=O)CN1CCN(CCNC(=O)COCCOCCNC(=O)COCCOCCNC(=O)COCCOCCNC(=O)COCCOCCNC(=O)CCC(=O)NCC(=O)O[C@]2(CC)C(=O)OCc3c2cc2n(c3=O)Cc3cc4ccccc4nc3-2)CC1)C(C)C)C(N)=O` [Example 20, Camptothecin-rvGly-Suc-(Doc)4-Aepa-Nle-Gln-Trp-Ala-Val-β-Ala-His-Leu-Nle-NH2] ({X1-Gly-Suc-AEEA-AEEA-AEEA-AEEA}-[Pipz(1-CH2CO,4-CH2CH2NH)][Nle]QWAV[βAla]HL[Nle]-NH2), the half-life in data set [1] was 4.8 h; in data set [2], 2.8 h. Besides, the Ki at bombesin/GRP receptor is 4.57 nM.

For the molecule “Camptothecin-rvD-Asp-Suc-(Doc)4-Aepa-D-Phe-c(Cys-Tyr-D-Trp-Lys-Abu-Cys)-Thr-NH2 Camptothecin-rvAsp-Suc-(Doc)4-Aepa-D-Phe-c(Cys-Tyr-D-Trp-Lys-Abu-Cys)-Thr-NH2 [5A′]”, the inhibition constant Ki on hSSTR-1 (setting [3]), on hSSTR-4 (setting [3]) and at hSSTR-3 (setting [3]) was at least 1000 nM in each case.

Source of the values: patent publication US8236762B2, “Peptide-cytotoxic conjugates” (IPSEN Pharma S.A.S., priority 2006, dated 2012).
